Measured values: PMC8722715 (Frontiers in Cell and Developmental Biology, 2021)

Assays:
hNaV1.7 channel = molecular target: T1, hNaV1.7 channel (Homo sapiens, UniProt Q15858); experiment: Automated patch-clamp block of hNaV1.7 peak Na+ current in CHO cells; assay type: cell-based; conditions: for hNaV1.7/hNaV1.6 selectivity ratio: inverse ratio of the mean IC50 values on hNaV1.7 (CHO) and hNaV1.6 (HEK-293) of Table 1; for hNaV1.7 IC50 versus WT: ratio of analogue mean IC50 to HwTx-IV WT mean IC50 on hNaV1.7; for IC50: CHO cells stably expressing hNaV1.7, SyncroPatch 384 PE whole-cell, holding -100 mV, -10 mV test pulse 50 ms every 5 s, room temperature 18-22°C, 0.3% BSA, steady state or end of 15-min application, mean, S.E.M. and n cells
T1 construct: expressed in transfected cells
T1 sequence (Q15858 whole entry): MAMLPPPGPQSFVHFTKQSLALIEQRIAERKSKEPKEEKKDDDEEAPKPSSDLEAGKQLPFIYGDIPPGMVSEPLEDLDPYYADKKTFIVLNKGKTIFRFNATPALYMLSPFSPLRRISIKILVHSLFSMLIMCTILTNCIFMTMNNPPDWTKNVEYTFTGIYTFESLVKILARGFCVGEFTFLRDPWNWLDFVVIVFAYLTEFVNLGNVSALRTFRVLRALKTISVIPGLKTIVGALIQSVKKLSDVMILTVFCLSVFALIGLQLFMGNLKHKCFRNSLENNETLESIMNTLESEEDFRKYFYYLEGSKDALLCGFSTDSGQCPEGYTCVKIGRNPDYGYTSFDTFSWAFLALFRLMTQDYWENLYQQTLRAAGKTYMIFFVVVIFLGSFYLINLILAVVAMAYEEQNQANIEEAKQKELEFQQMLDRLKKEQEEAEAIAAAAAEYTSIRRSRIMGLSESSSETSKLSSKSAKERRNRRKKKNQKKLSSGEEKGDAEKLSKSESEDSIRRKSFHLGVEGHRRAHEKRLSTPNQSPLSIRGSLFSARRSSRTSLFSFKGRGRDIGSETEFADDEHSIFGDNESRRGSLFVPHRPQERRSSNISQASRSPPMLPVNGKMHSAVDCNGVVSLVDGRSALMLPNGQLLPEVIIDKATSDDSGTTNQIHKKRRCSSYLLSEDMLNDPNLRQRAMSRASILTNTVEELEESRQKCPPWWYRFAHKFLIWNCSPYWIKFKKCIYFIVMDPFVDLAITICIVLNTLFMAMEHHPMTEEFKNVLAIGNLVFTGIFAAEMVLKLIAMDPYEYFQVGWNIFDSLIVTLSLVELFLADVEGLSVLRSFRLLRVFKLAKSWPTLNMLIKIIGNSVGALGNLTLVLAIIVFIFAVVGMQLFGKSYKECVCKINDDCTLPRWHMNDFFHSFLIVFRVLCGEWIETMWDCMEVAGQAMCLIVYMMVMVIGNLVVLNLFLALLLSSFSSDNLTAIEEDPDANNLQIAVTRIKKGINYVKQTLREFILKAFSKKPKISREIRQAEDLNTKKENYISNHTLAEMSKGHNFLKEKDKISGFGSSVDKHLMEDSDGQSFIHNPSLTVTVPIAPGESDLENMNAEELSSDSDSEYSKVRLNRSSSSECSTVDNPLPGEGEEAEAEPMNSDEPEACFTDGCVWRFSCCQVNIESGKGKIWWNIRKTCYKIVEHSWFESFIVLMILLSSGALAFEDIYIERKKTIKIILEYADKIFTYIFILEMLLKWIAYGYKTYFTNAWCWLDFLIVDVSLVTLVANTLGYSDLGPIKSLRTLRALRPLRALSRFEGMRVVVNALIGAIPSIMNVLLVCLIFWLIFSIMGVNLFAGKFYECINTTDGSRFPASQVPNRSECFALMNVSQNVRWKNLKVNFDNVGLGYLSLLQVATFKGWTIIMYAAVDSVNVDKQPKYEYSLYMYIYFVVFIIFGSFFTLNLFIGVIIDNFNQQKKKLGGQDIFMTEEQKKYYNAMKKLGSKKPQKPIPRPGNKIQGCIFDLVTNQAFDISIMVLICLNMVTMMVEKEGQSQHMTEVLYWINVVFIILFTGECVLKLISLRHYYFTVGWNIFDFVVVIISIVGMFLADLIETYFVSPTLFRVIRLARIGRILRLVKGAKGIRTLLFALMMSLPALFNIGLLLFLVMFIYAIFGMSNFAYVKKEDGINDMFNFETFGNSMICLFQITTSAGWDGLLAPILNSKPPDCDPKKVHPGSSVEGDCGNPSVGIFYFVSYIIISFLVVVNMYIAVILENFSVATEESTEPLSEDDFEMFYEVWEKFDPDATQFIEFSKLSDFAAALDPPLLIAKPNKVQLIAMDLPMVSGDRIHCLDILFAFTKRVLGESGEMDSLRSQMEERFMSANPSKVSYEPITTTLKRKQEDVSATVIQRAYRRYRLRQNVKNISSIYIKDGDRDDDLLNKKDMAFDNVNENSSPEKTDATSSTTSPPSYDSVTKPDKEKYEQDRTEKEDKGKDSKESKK
Protocol: (§1) CHO cells stably expressing the hNaV1.7 channel subtype were cultured in Dulbecco’s Modified Eagle’s Medium F-12 (DMEM/F12) supplemented with 10% fetal bovine serum, 2 mM glutamine, 200 μg/ml hygromycine B, 10 U/ml penicillin and 10 μg/ml streptomycin (Gibco, Grand Island, NY). HEK-293 cells stably expressing the hNaV1.6 channel subtype were cultured in Dulbecco’s Modified Eagle’s Medium (DMEM) supplemented with 10% fetal calf serum, 1 mM pyruvic acid, 4.5 g/L glucose, 2 mM glutamine, 800 μg/ml G418, 10 U/ml penicillin and 10 μg/ml streptomycin (Gibco, Grand Island, NY). All cell lines were incubated at 37°C in a 5% CO2 atmosphere. For electrophysiological recordings, cells were detached with trypsin, and floating single cells were diluted (∼300,000 cells/ml) in an extracellular solution containing (in mM): 140 NaCl, 4 KCl, 2 CaCl2, 1 MgCl2, 5 glucose and 10 HEPES (pH 7.4, osmolarity 298 mOsm), that was used throughout the experiments.
HwTx-IV analogues were investigated on CHO cells expressing hNav1.7 channel and HEK-293 cells expressing hNaV1.6 channel using the automated patch-clamp system from Nanion (SyncroPatch 384 PE; München, Germany). Chips with single-hole and high-resistance (∼6–7 MΩ) were used for both cell lines. Voltage pulses and whole-cell recordings were achieved using the PatchControl384 v1.5.2 software (Nanion) and the Biomek v1.0 interface (Beckman Coulter). Prior to recordings, dissociated cells were shaken at 200 RPM in a cell hotel reservoir at 10°C. After cell catching, sealing, whole-cell formation, liquid application, recording, and data acquisition were all performed sequentially and automatically. The intracellular solution contained (in mM): 110 CsF, 10 CsCl, 10 NaCl, 1 MgCl2, 1 CaCl2, 10 EGTA and 10 HEPES (pH 7.2, osmolarity 280 mOsm), and the extracellular solution was as described above. Whole-cell experiments were done at −100 mV holding potential and at room temperature (18–22°C), while currents triggered at either −10 or 0 mV test potential were sampled at 20 kHz. Stimulation frequency was set at 0.2 Hz. Each HwTx-IV analogue was prepared at various concentrations in the extracellular solution, itself supplemented with 0.3% of bovine serum albumin (BSA), also added in the control solution. […] Compound solutions were diluted 3 times in the patch-clamp recording well by adding 30–60 μl external solution, to reach the final reported concentration and the test volume of 90 μl. For establishing dose-response curves, the compounds were tested at a test potential of either −10 or 0 mV for 50 ms with a pulse every 5 s. Percentages of current inhibition were measured at steady-state of blockage or at the end of a 15-min application time.

hNaV1.6 channel = molecular target: T2, hNaV1.6 channel (Homo sapiens, UniProt Q9UQD0); experiment: Automated patch-clamp block of hNaV1.6 peak Na+ current in HEK-293 cells; assay type: cell-based; conditions: for hNaV1.6 IC50 versus WT: ratio of analogue mean IC50 to HwTx-IV WT mean IC50 on hNaV1.6; for IC50: HEK-293 cells stably expressing hNaV1.6, SyncroPatch 384 PE whole-cell, holding -100 mV, 0 mV test pulse 50 ms every 5 s, room temperature 18-22°C, 0.3% BSA, steady state or end of 15-min application, mean, S.E.M. and n cells
T2 construct: expressed in transfected cells
T2 sequence (Q9UQD0 whole entry): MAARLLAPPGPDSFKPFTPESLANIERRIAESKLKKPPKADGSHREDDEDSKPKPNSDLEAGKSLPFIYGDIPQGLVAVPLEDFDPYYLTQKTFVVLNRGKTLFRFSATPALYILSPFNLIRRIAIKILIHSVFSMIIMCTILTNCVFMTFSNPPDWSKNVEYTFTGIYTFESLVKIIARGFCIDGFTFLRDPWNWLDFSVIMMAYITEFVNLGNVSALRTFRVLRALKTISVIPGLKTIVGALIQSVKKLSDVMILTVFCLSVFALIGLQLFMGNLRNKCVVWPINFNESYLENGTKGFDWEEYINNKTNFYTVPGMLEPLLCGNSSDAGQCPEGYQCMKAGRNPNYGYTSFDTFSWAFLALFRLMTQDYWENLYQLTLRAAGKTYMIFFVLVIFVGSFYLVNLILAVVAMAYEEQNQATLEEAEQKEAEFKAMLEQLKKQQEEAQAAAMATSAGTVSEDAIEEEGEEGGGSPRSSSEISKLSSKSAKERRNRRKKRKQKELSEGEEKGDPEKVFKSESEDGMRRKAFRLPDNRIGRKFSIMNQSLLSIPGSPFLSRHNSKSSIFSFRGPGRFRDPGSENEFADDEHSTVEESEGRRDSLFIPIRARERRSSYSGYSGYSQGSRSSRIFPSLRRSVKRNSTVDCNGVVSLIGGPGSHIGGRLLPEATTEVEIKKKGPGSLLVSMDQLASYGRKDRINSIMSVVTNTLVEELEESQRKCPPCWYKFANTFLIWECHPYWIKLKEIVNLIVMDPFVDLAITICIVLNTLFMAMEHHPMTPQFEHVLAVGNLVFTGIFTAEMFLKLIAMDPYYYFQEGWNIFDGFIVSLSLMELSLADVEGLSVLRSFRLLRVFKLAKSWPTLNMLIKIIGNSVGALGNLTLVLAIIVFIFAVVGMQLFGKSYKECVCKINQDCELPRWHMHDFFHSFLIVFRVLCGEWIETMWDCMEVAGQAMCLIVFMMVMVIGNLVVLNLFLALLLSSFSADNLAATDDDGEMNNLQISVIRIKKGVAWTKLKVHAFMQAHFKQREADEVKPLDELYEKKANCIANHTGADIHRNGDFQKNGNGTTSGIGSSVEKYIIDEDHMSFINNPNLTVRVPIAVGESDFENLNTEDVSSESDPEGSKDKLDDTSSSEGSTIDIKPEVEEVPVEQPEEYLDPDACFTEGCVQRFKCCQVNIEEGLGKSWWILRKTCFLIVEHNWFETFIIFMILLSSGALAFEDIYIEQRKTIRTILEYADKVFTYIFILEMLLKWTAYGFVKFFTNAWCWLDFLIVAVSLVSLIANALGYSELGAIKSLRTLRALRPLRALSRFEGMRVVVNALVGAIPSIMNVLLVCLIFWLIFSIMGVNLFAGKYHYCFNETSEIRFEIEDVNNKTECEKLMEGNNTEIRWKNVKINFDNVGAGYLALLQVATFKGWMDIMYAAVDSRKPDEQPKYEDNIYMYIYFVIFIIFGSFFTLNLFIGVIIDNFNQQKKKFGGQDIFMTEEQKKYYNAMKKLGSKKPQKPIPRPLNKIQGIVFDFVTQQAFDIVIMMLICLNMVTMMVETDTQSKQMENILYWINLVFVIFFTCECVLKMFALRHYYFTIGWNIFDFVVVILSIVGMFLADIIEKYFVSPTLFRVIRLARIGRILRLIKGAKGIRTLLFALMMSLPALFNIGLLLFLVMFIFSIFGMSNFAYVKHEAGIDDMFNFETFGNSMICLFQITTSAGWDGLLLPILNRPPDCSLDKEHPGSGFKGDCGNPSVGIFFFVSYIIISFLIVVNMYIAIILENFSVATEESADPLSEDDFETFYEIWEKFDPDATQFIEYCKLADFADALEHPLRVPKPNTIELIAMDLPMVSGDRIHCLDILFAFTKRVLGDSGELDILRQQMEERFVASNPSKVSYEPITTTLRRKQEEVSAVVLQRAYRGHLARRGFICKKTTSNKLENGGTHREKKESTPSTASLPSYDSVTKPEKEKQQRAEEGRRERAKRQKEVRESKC
Protocol: as §1
HwTx-IV analogues were investigated on CHO cells expressing hNav1.7 channel and HEK-293 cells expressing hNaV1.6 channel using the automated patch-clamp system from Nanion (SyncroPatch 384 PE; München, Germany). Chips with single-hole and high-resistance (∼6–7 MΩ) were used for both cell lines. Voltage pulses and whole-cell recordings were achieved using the PatchControl384 v1.5.2 software (Nanion) and the Biomek v1.0 interface (Beckman Coulter). Prior to recordings, dissociated cells were shaken at 200 RPM in a cell hotel reservoir at 10°C. After cell catching, sealing, whole-cell formation, liquid application, recording, and data acquisition were all performed sequentially and automatically. The intracellular solution contained (in mM): 110 CsF, 10 CsCl, 10 NaCl, 1 MgCl2, 1 CaCl2, 10 EGTA and 10 HEPES (pH 7.2, osmolarity 280 mOsm), and the extracellular solution was as described above. Whole-cell experiments were done at −100 mV holding potential and at room temperature (18–22°C), while currents triggered at either −10 or 0 mV test potential were sampled at 20 kHz. Stimulation frequency was set at 0.2 Hz. Each HwTx-IV analogue was prepared at various concentrations in the extracellular solution, itself supplemented with 0.3% of bovine serum albumin (BSA), also added in the control solution. The peptides were distributed in 384-well microplates according to the number of compounds to be tested (generally four), the concentration range defined from the IC50 of wild-type HwTx-IV, and the number of cells desired for each experimental condition. Compound solutions were diluted 3 times in the patch-clamp recording well by adding 30–60 μl external solution, to reach the final reported concentration and the test volume of 90 μl. For establishing dose-response curves, the compounds were tested at a test potential of either −10 or 0 mV for 50 ms with a pulse every 5 s. Percentages of current inhibition were measured at steady-state of blockage or at the end of a 15-min application time.

Structure (SMILES) | hNaV1.7/hNaV1.6 selectivity ratio (hNaV1.7 channel; listed as E^4K) | hNaV1.7/hNaV1.6 selectivity ratio (hNaV1.7 channel; listed as HwTx-IV E^4K) | hNaV1.7 IC50 versus WT (hNaV1.7 channel) | hNaV1.7 IC50 versus WT (hNaV1.7 channel; listed as HwTx-IV E^4G) | hNaV1.7 IC50 versus WT (hNaV1.7 channel; listed as HwTx-IV E^4K) | hNaV1.6 IC50 versus WT (hNaV1.6 channel) | hNaV1.6 IC50 versus WT (hNaV1.6 channel; listed as HwTx-IV E^4G) | hNaV1.6 IC50 versus WT (hNaV1.6 channel; listed as HwTx-IV E^4K) | hNaV1.6 IC50 versus WT (hNaV1.6 channel; listed as HwTx-IV E^4R) | IC50 (hNaV1.7 channel) | IC50 (hNaV1.6 channel) | hNaV1.7/hNaV1.6 selectivity ratio (hNaV1.7 channel)
CC[C@H](C)[C@H](NC(=O)[C@H](CCC(N)=O)NC(=O)[C@H](Cc1ccc(O)cc1)NC(=O)[C@H](CCCCN)NC(=O)[C@@H]1CSSC[C@@H]2NC(=O)[C@H](CCC(N)=O)NC(=O)[C@H](CC(=O)O)NC(=O)[C@H](CC(N)=O)NC(=O)[C@H](CO)NC(=O)[C@@H]3CCCN3C(=O)[C@H](CC(N)=O)NC(=O)[C@@H]3CSSC[C@H](NC(=O)[C@H](C(C)C)NC(=O)[C@H](CC(C)C)NC(=O)[C@H](CCCCN)NC(=O)[C@H](CO)NC(=O)[C@H](CO)NC(=O)[C@H](CCCCN)NC(=O)[C@H](CSSC[C@H](NC(=O)CN)C(=O)N[C@@H](CC(C)C)C(=O)N[C@@H](CCC(=O)O)C(=O)N[C@@H]([C@@H](C)CC)C(=O)N[C@@H](Cc4ccccc4)C(=O)N[C@@H](CCCCN)C(=O)N[C@@H](C)C(=O)N3)NC2=O)C(=O)N[C@@H](CO)C(=O)N[C@@H](CCCNC(=N)N)C(=O)N[C@@H](CCCCN)C(=O)N[C@@H]([C@@H](C)O)C(=O)N[C@@H](CCCNC(=N)N)C(=O)N[C@@H](Cc2c[nH]c3ccccc23)C(=O)N1)C(N)=O [HwTx-IV E^1G] | less than 2 | ~1 | 0.70 | 0.16 | 1.43 | 0.28 | 0.03 | 0.09 | 0.05 |  |  | 
CC[C@H](C)[C@H](NC(=O)[C@H](CCC(N)=O)NC(=O)[C@H](Cc1ccc(O)cc1)NC(=O)[C@H](CCCCN)NC(=O)[C@@H]1CSSC[C@@H]2NC(=O)[C@H](CCC(N)=O)NC(=O)[C@H](CC(=O)O)NC(=O)[C@H](CC(N)=O)NC(=O)[C@H](CO)NC(=O)[C@@H]3CCCN3C(=O)[C@H](CC(N)=O)NC(=O)[C@@H]3CSSC[C@H](NC(=O)[C@H](C(C)C)NC(=O)[C@H](CC(C)C)NC(=O)[C@H](CCCCN)NC(=O)[C@H](CO)NC(=O)[C@H](CO)NC(=O)[C@H](CCCCN)NC(=O)[C@H](CSSC[C@H](NC(=O)[C@@H](N)CCC(=O)O)C(=O)N[C@@H](CC(C)C)C(=O)NCC(=O)N[C@@H]([C@@H](C)CC)C(=O)N[C@@H](Cc4ccccc4)C(=O)N[C@@H](CCCCN)C(=O)N[C@@H](C)C(=O)N3)NC2=O)C(=O)N[C@@H](CO)C(=O)N[C@@H](CCCNC(=N)N)C(=O)N[C@@H](CCCCN)C(=O)N[C@@H]([C@@H](C)O)C(=O)N[C@@H](CCCNC(=N)N)C(=O)N[C@@H](Cc2c[nH]c3ccccc23)C(=O)N1)C(=O)O [HwTx-IV E^4G/CterCOOH] |  |  | 1.51 |  |  | 0.24 |  |  |  | 14.9 nM | 55.1 nM | 
CC[C@H](C)[C@H](NC(=O)[C@H](CCC(N)=O)NC(=O)[C@H](Cc1ccc(O)cc1)NC(=O)[C@H](CCCCN)NC(=O)[C@@H]1CSSC[C@@H]2NC(=O)[C@H](CCC(N)=O)NC(=O)[C@H](CC(=O)O)NC(=O)[C@H](CC(N)=O)NC(=O)[C@H](CO)NC(=O)[C@@H]3CCCN3C(=O)[C@H](CC(N)=O)NC(=O)[C@@H]3CSSC[C@H](NC(=O)[C@H](C(C)C)NC(=O)[C@H](CC(C)C)NC(=O)[C@H](CCCCN)NC(=O)[C@H](CO)NC(=O)[C@H](CO)NC(=O)[C@H](CCCCN)NC(=O)[C@H](CSSC[C@H](NC(=O)[C@@H](N)CCC(=O)O)C(=O)N[C@@H](CC(C)C)C(=O)N[C@@H](CCCCN)C(=O)N[C@@H]([C@@H](C)CC)C(=O)N[C@@H](Cc4ccccc4)C(=O)N[C@@H](CCCCN)C(=O)N[C@@H](C)C(=O)N3)NC2=O)C(=O)N[C@@H](CO)C(=O)N[C@@H](CCCNC(=N)N)C(=O)N[C@@H](CCCCN)C(=O)N[C@@H]([C@@H](C)O)C(=O)N[C@@H](CCCNC(=N)N)C(=O)N[C@@H](Cc2c[nH]c3ccccc23)C(=O)N1)C(=O)O [HwTx-IV E^4K/CterCOOH] |  |  | 1.20 |  |  | 0.60 |  |  |  | 11.9 nM | 136 nM | 
CC[C@H](C)[C@H](NC(=O)[C@H](CCC(N)=O)NC(=O)[C@H](Cc1c[nH]c2ccccc12)NC(=O)[C@H](CCCCN)NC(=O)[C@@H]1CSSC[C@@H]2NC(=O)[C@H](CCC(N)=O)NC(=O)[C@H](CC(=O)O)NC(=O)[C@H](CC(N)=O)NC(=O)[C@H](CO)NC(=O)[C@@H]3CCCN3C(=O)[C@H](CC(N)=O)NC(=O)[C@@H]3CSSC[C@H](NC(=O)[C@H](C(C)C)NC(=O)[C@H](CC(C)C)NC(=O)[C@H](CCCCN)NC(=O)[C@H](CO)NC(=O)[C@H](CO)NC(=O)[C@H](CCCCN)NC(=O)[C@H](CSSC[C@H](NC(=O)[C@@H](N)CCC(=O)O)C(=O)N[C@@H](CC(C)C)C(=O)N[C@@H](CCCCN)C(=O)N[C@@H]([C@@H](C)CC)C(=O)N[C@@H](Cc4ccccc4)C(=O)N[C@@H](CCCCN)C(=O)N[C@@H](C)C(=O)N3)NC2=O)C(=O)N[C@@H](CO)C(=O)N[C@@H](C)C(=O)N[C@@H](CCCCN)C(=O)N[C@@H]([C@@H](C)O)C(=O)N[C@@H](CCCNC(=N)N)C(=O)N[C@@H](Cc2c[nH]c3ccccc23)C(=O)N1)C(N)=O [HwTx-IV E^4K/R ^26A/Y^33W] |  |  | 0.09 |  |  | 0.38 |  |  |  | 0.9 nM | 86.4 nM | above 46
